Assay results: publication PMC4890880 (ACS infectious diseases, 2016)
Read-outs that look alike come from different tables or passages of the source.

Key:
HepG2-A16-CD81EGFP cells [1] = details: for IC50: read-out: Tox_IC50, HepG2 cytotoxicity
[2] = test system: Plasmodium berghei (Pb-Luc) exoerythrocytic-stage parasites; assay: microbe, parasite or virus in culture; details: for IC50: read-out: PbLuc IC50, dose response, 1/3 dilutions, max conc. 10 or 50 uM, unit inferred
HepG2-A16-CD81EGFP cells [3] = assay: cells; details: Homo sapiens; for IC50: HepG2, read-out: Tox IC50; for inhibition at 50 µM: HepG2, read-out: Tox max inhibition (%) @ 50 uM
[4] = sheet 2nd round, maximal inhibition in dose response
[5] = read-out: Inhibition% @ 50 uM rep1
[6] = read-out: Inhibition% @ 50 uM rep2
[7] = HepG2, read-out: HepG2 Tox% @ 50 uM rep1
[8] = HepG2, read-out: HepG2 Tox% @ 50 uM rep2
[9] = read-out: PbLuc max inhibition (%) @ 50 uM

SMILES	inhibition at 50 µM [2, 5] [%]	inhibition at 50 µM [2, 6] [%]	cytotoxicity at 50 µM (HepG2-A16-CD81EGFP cells [3]; [7]) [%]	cytotoxicity at 50 µM (HepG2-A16-CD81EGFP cells [3]; [8]) [%]	also measured
COc1ccc(-c2ccc([C@H]3[C@@H](C#N)N(C(=O)NC(C)C)[C@H]3CO)cc2)cc1 [BRD-K15519105-001-01-9]	–	–	–	–	IC50 (HepG2-A16-CD81EGFP cells [1]; sheet "2nd round"): > 10 µM; Tox_max_inhibition (%) (HepG2-A16-CD81EGFP cells [1]; sheet "2nd round"): 38%
C[C@@H]1CCCCO[C@@H](CN(C)S(=O)(=O)c2ccccc2)[C@H](C)CN([C@H](C)CO)C(=O)c2cc(NC(=O)Nc3ccc4c(c3)OCO4)ccc2O1 [BRD-K87351697-001-01-4]	–	–	–	–	IC50 (HepG2-A16-CD81EGFP cells [1]; sheet 2nd round): > 10 µM; Tox_max_inhibition (%) (HepG2-A16-CD81EGFP cells [1]; [4]): 5%
C[C@@H]1CCCCO[C@@H](CN(C)C(=O)Nc2cccc3ccccc23)[C@H](C)CN([C@H](C)CO)C(=O)c2cc(NC(=O)CCC(F)(F)F)ccc2O1 [BRD-K78692607-001-01-1]	–	–	–	–	IC50 (HepG2-A16-CD81EGFP cells [1]; sheet 2nd round): > 10 µM; Tox_max_inhibition (%) (HepG2-A16-CD81EGFP cells [1]; [4]): 10%
COc1ccc2c3c(n(C)c2c1)[C@H](CO)N(Cc1ccc2c(c1)OCO2)CC31CN(C(=O)c2ccc3c(c2)OCO3)C1 [BRD-K24711160-001-01-3]	–	–	–	–	IC50 (HepG2-A16-CD81EGFP cells [1]; sheet 2nd round): > 10 µM; Tox_max_inhibition (%) (HepG2-A16-CD81EGFP cells [1]; [4]): 3%
O=C(C[C@@H]1C[C@H]2c3cc(NC(=O)c4ccc5c(c4)OCO5)ccc3O[C@H]2[C@@H](CO)O1)NCc1ccc(Oc2ccccc2)cc1 [BRD-K67862512-001-01-7]	–	–	–	–	IC50 (HepG2-A16-CD81EGFP cells [1]; sheet 2nd round): > 10 µM; Tox_max_inhibition (%) (HepG2-A16-CD81EGFP cells [1]; [4]): 23%
COc1ccccc1C#Cc1ccc([C@@H]2[C@@H](CO)N3CCCCN(C(=O)C4CCC4)C[C@H]23)cc1 [BRD-K36773541-001-01-9]	–	–	–	–	IC50 (HepG2-A16-CD81EGFP cells [1]; sheet 2nd round): > 10 µM; Tox_max_inhibition (%) (HepG2-A16-CD81EGFP cells [1]; [4]): 6%
CO[C@@H]1CN(C)C(=O)c2ccc(NC(=O)NC(C)C)cc2OC[C@@H](C)N(Cc2ccccc2)C[C@H]1C [BRD-K91191258-001-01-9]	–	–	–	–	IC50 (HepG2-A16-CD81EGFP cells [1]; sheet 2nd round): > 10 µM; Tox_max_inhibition (%) (HepG2-A16-CD81EGFP cells [1]; [4]): 9%
Cc1ccc(Nc2nc(N)c3ccccc3n2)cc1Cl [MMV011522]	100	99	97	–	–
O=C1c2ccccc2-c2nnc(-c3ccc(Br)cc3)cc21 [MMV665934]	1.49	29	-9	–	–
CC(C)(C)c1ccc(O)c(CNC2CCCCC2)c1 [MMV665785]	99	102	97	99	–
Cc1ccc(C)c(-c2csc(Nc3ccc(C)c(C)c3)n2)c1 [MMV007654]	-107	-33	-26	–	–
C=C(C)CCC(C)N1CCC(N2CCC(C(=O)NCCc3ccccc3)CC2)CC1 (stereo not shown) [MMV666110]	101	99	91	97	–
Cc1ccc2nc(C)cc(Nc3cccc(C(F)(F)F)c3)c2c1 [MMV000326]	103	103	100	–	–
Cc1cc(Nc2cccc(F)c2)nc(NCc2ccccc2)n1 [MMV006319]	104	106	99	102	–
Cc1ccc(C(=O)c2oc3ccc4c(C)cc(=O)oc4c3c2C)cc1 [MMV086103]	103	103	40	–	–
O=C(NCC(c1ccsc1)N1CCCCCC1)c1ccc(C(F)(F)F)cc1 (stereo not shown) [MMV396672]	104	104	98	99	–
Cc1cc(N(C)C)nc(Nc2ccc(NC(=O)Nc3ccccc3)cc2)n1 [MMV020243]	96	99	96	–	IC50 [2]: 1.45 µM; inhibition at 50 µM [2, 9]: 100%; IC50 (HepG2-A16-CD81EGFP cells [3]): 15.7 µM; inhibition at 50 µM (HepG2-A16-CD81EGFP cells [3]): 100%
COc1cccc(C(=O)NC(c2ccc(C)cc2)c2cc(Cl)c3cccnc3c2O)c1 (stereo not shown) [MMV665969]	104	104	92	–	IC50 [2]: 1.65 µM; inhibition at 50 µM [2, 9]: 101%; IC50 (HepG2-A16-CD81EGFP cells [3]): 4.83 µM; inhibition at 50 µM (HepG2-A16-CD81EGFP cells [3]): 89%
Cc1ccc(F)cc1NC(=O)c1cc(Cl)ccc1Nc1ccccc1 [MMV007275]	75	69	-8	–	–
Cc1cc(NCCN2CCCCC2)c2ccc3ccccc3c2n1 [MMV006203]	99	101	93	95	–
CC(C)=CCN1CCC(C(=O)Nc2ccc(-c3nc4ccccc4[nH]3)cc2)CC1 [MMV665946]	100	101	98	99	–
CCOc1c(Cl)cc(CNCC(O)c2ccccc2)cc1OC (stereo not shown) [MMV396632]	99	96	82	76	–
c1ccc(Cn2c(N=Nc3c(Nc4ccccc4)ccc4ccccc34)nc3ccccc32)cc1 [MMV666023]	99	98	83	86	IC50 [2]: 4.21 µM; inhibition at 50 µM [2, 9]: 100%; IC50 (HepG2-A16-CD81EGFP cells [3]): 12 µM; inhibition at 50 µM (HepG2-A16-CD81EGFP cells [3]): 83%
